Results published in patent US20250332173A1, “COMPOUNDS AND METHODS FOR MODULATING NUCLEIC ACID SPLICING” (REMIX THERAPEUTICS INC., priority 2021, published 2025).
Like-named read-outs stand apart in the source and are kept apart here.

Legend:
[1] = system: K562 (human chronic myelogenous leukemia) cells; experiment: Cell Titer Glo 2.0 cell viability assay; format: cell-based; settings: K562 cells, 72 hours, Cell Titer Glo 2.0, read-out: K562 GI50
Protocol: Compounds described herein were screened for toxicity in K562 (human chronic myelogenous leukemia) cells using a Cell Titer Glo 2.0 assay.
Cells were plated at 500 cells/well (K562 cells) in 45 μL of IMDM supplemented with 1000 FBS in a 384-well opaque plate. Wells containing only medium were used as a blank control. Test compounds (e.g., compounds ofFormula (I), (II), (III), (IV), (V), (VI), (VII), (VIII), and (IX)) were first serially diluted in DMSO then diluted 1:100 with IMDM+10% FBS. The final concentration of DMSO was 0.1% in each well. The cells were incubated for 72 hours at 37° C. and 500 CO2 before assaying with Cell Titer Glo 2.0 reagent.

MYB mRNA = experiment: RT-qPCR splicing assay, MYB canonical junction (CJ) and alternative junction (AJ) mRNA; format: cell-based, human; settings: Homo sapiens; for AC50: increase in MYB alternative junction (AJ) mRNA, read-out: MYB AJ AC50
In short: (§1)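 Read-out is one-step RT-qPCR on cell lysates detecting the exon-exon junction of each isoform, normalized to a housekeeping gene (PPIA in A673, GAPDH or GUSB in K562).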

HTT mRNA = experiment: RT-qPCR splicing assay, HTT canonical junction (CJ) and alternative junction (AJ) mRNA; format: cell-based, human; settings: Homo sapiens; for AC50: increase in HTT alternative junction (AJ) mRNA, read-out: HTT AJ AC50
In short: as §1

Target C = experiment: RT-qPCR splicing assay panel, Target C canonical junction (CJ) mRNA; format: cell-based, human; settings: Homo sapiens; Table 5 panel; canonical junction qPCR; compound concentration having 50% response in CJ decrease; read-out: Target C IC50 (decrease in CJ mRNA levels)
In short: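 Read-out is canonical exon-exon junction mRNA quantified by RT-qPCR against a GAPDH, GUSB or PPIA control. Cells (A673 or K562) received compound for 24 h, top final dose 10 uM in an 11-point 3-fold series.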

[2] = Table 5 panel, canonical junction qPCR, compound concentration having 50% response in CJ decrease, read-out: MYB IC50 (decrease in CJ mRNA levels)
[3] = decrease in MYB canonical junction (CJ) mRNA, RT-qPCR, read-out: MYB CJ IC50
[4] = decrease in HTT canonical junction (CJ) mRNA, RT-qPCR, read-out: HTT CJ IC50
[5] = Table 5 panel, canonical junction qPCR, compound concentration having 50% response in CJ decrease, read-out: HTT IC50 (decrease in CJ mRNA levels)

Row | SMILES | GI50 ([1]; Homo sapiens, K562, 72 h) [µM] | IC50 (MYB mRNA; [2]) [µM] | IC50 (MYB mRNA; [3]) [µM] | AC50 (MYB mRNA; RT-qPCR) [µM] | IC50 (HTT mRNA; [4]) [µM] | AC50 (HTT mRNA; RT-qPCR) [µM] | IC50 (HTT mRNA; [5]) [µM] | IC50 (Target C) [µM] | GI50 [1] [µM]
1 | Cn1cc2cc(-c3cc(F)c4c(=O)n(C5CCNCC5)cnc4c3)cc(C#N)c2n1 [Compound 316] | 0.1 to 1 | < 0.1 | < 0.1 | < 0.1 | 0.1 to 1 | 0.1 to 1 | 0.1 to 1 | 0.1 to 1 | 
2 | Cc1cn2cc(-c3cc(F)c4c(=O)n(C5CCNCC5)cnc4c3)cc(C)c2n1 [Compound 317] | 0.1 to 1 | < 0.1 | 0.1 to 1 | < 0.1 | 0.1 to 1 | 0.1 to 1 | 0.1 to 1 | 0.1 to 1 | 
3 | Cc1cn2nc(-c3cc(F)c4c(=O)n(C5CCNCC5)cnc4c3)cc2c(C)n1 [Compound 318] | 0.1 to 1 | < 0.1 | < 0.1 | < 0.1 | < 0.1 | < 0.1 | < 0.1 | 0.1 to 1 | 
4 | Cc1cn2cc(-c3cc(F)c4c(=O)n(C5CCNCC5)cnc4c3)nc2c(C)n1 [Compound 319] | 0.1 to 1 | 0.1 to 1 | 1 to 10 | 0.1 to 1 | 1 to 10 | 1 to 10 | 1 to 10 | 1 to 10 | 
5 | COc1cc(-c2cc(F)c3c(=O)n(C4CCNCC4)cnc3c2)cnn1 [Compound 320] | > 10 | > 10 | > 10 | > 10 | > 10 | > 10 | > 10 | > 10 | 
6 | Cc1cn2nc(-c3cc(F)c4c(=O)n(C5CCNCC5)ccc4c3)cc(C)c2n1 [Compound 322] | < 0.1 | < 0.1 | < 0.1 | < 0.1 | < 0.1 | < 0.1 | < 0.1 | < 0.1 | 
7 | Cc1cn2cc(-c3cc(F)c4c(=O)n([C@H]5CCNC[C@H]5F)cnc4c3)cc(F)c2n1 [Compound 338] | 0.1 to 1 | < 0.1 | < 0.1 | < 0.1 | 1 to 10 | 0.1 to 1 | 0.1 to 1 | 1 to 10 | 
8 | Cc1cn2cc(-c3cc(F)c4c(=O)n(C5CCNCC5(F)F)cnc4c3)cc(F)c2n1 (stereo not drawn) [Compound 339] | > 10 | 1 to 10 | 1 to 10 | 1 to 10 | > 10 | 1 to 10 | 1 to 10 | > 10 | 
9 | Cc1cn2cc(-c3cc(F)c4c(=O)n(N5CCNCC5)cnc4c3)cc(F)c2n1 [Compound 340, 5-fluoro-7-{8-fluoro-2-methylimidazo[1,2-a]pyridin-6-yl}-3-(piperazin-1-yl)quinazolin-4-one] | 0.1 to 1 | < 0.1 | < 0.1 | < 0.1 | 0.1 to 1 | 0.1 to 1 | 0.1 to 1 | 0.1 to 1 | 
10 | Cc1cn2cc(-c3cc(F)c4c(=O)n(C5=CCNCC5)cnc4c3)cc(F)c2n1 [Compound 342] | < 0.1 | < 0.1 | < 0.1 | < 0.1 | 0.1 to 1 | < 0.1 | < 0.1 | 0.1 to 1 | 
11 | Cc1cn2nc(-c3cc(N(C)C)c4c(=O)n(C5CCNC6(CC6)C5)cnc4c3)cc(C)c2n1 (stereo not drawn) [Compound 345] | > 10 | < 0.1 | < 0.1 | < 0.1 | < 0.1 | < 0.1 | < 0.1 | < 0.1 | 
12 | Cc1cn2cc(-c3cc(F)c4c(=O)n([C@H]5CCN[C@H](C)C5)cnc4c3)cc(F)c2n1 [Compound 346, trans-5-fluoro-7-(8-fluoro-2-methylimidazo[1,2-a]pyridin-6-yl)-3-(2-methylpiperidin-4-yl)quina-zolin-4(3H)-one] | 0.1 to 1 | < 0.1 | < 0.1 | < 0.1 | 0.1 to 1 | 0.1 to 1 | 0.1 to 1 | 0.1 to 1 | 
13 | Cc1cn2cc(-c3cc(F)c4c(=O)n([C@H]5CCNC[C@@H]5O)cnc4c3)cc(F)c2n1 [Compound 347, 5-fluoro-7-{8-fluoro-2-methylimidazo[1,2-a]pyridin-6-yl}-3-[(3S,4S)-3-hydroxypiperidin-4-yl]quinazolin-4-one] | > 10 | 0.1 to 1 | 1 to 10 | 1 to 10 | > 10 | > 10 | > 10 | 1 to 10 | 
14 | Cc1cn2cc(-c3cc(F)c4c(=O)n([C@H]5CNCC[C@@H]5O)cnc4c3)cc(F)c2n1 [Compound 348, 5-fluoro-7-{8-fluoro-2-methylimidazo[1,2-a]pyridin-6-yl}-3-[(3S,4S)-4-hydroxypiperidin-3-yl]quinazolin-4-one] | > 10 | > 10 | > 10 | > 10 | > 10 | > 10 | > 10 | > 10 | 
15 | Cc1cn2nc(-c3ccc4c(=O)n([C@H]5CCNC6(CC6)C5)cnc4c3)cc(C)c2n1 [Compound 349, 3-[(7S)-4-azaspiro[2.5]octan-7-yl]-7-{2,8-dimethylimidazo[1,2-b]pyridazin-6-yl}quinazolin-4-one] | 1 to 10 | 0.1 to 1 | 0.1 to 1 | 0.1 to 1 | 0.1 to 1 | 0.1 to 1 | 0.1 to 1 | 1 to 10 | 
16 | Cc1cn2nc(-c3ccc4c(=O)n([C@@H]5CCNC6(CC6)C5)cnc4c3)cc(C)c2n1 [Compound 350, 3-[(7R)-4-azaspiro[2.5]octan-7-yl]-7-{2,8-dimethylimidazo[1,2-b]pyridazin-6-yl}quinazolin-4-one] |  | < 0.1 | < 0.1 | < 0.1 | < 0.1 | < 0.1 | < 0.1 | 0.1 to 1 | 0.1 to 1
17 | Cc1cn2nc(-c3cc(F)c4c(=O)n(C5CCNC6(CC6)C5)cnc4c3)cc(C)c2n1 (stereo not drawn) [Compound 351] | 0.1 to 1 | < 0.1 | < 0.1 | < 0.1 | < 0.1 | < 0.1 | < 0.1 | < 0.1 | 
18 | Cc1cn2cc(-c3cc(F)c4c(=O)n(C5CNCCC5=O)cnc4c3)cc(F)c2n1 (stereo not drawn) [Compound 352, 5-fluoro-7-{8-fluoro-2-methylimidazo[1,2-a]pyridin-6-yl}-3-(4-oxopiperidin-3-yl)quinazolin-4-one] | > 10 | > 10 | > 10 | > 10 | > 10 | > 10 | > 10 | > 10 | 
